Columns and labels:
Settings in all cases: 72 h
Calu-3 [1] = experiment: cell viability relative to DMSO; higher = less toxic
Vero E6 [2] = experiment: as above
U2OS [3] = experiment: as above
HepG2 [4] = experiment: as above
Caco-2 [5] = experiment: as above
Calu-3 [6] = experiment: drug sensitivity score (DSS) for viability; higher = more toxic; extreme values may be limits of the assay
Vero E6 [7] = experiment: as above
U2OS [8] = experiment: as above
HepG2 [9] = experiment: as above
Caco-2 [10] = experiment: as above
Vero E6 [11] = experiment: relative viability EC50 (midpoint between 100% and the lowest measured viability); higher = less toxic
U2OS [12] = experiment: as above
HepG2 [13] = experiment: as above
Caco-2 [14] = experiment: as above
Calu-3 [15] = experiment: as above

Structure (SMILES)	cell viability (Calu-3 [1]; 1 nM)	cell viability (Calu-3 [1]; 10 nM)	cell viability (Calu-3 [1]; 100 nM)	cell viability (Calu-3 [1]; 1000 nM)	cell viability (Calu-3 [1]; 10000 nM)	cell viability (Vero E6 [2]; 1 nM)	cell viability (Vero E6 [2]; 10 nM)	cell viability (Vero E6 [2]; 100 nM)	cell viability (Vero E6 [2]; 1000 nM)	cell viability (Vero E6 [2]; 10000 nM)	cell viability (U2OS [3]; 1 nM)	cell viability (U2OS [3]; 10 nM)	cell viability (U2OS [3]; 100 nM)	cell viability (U2OS [3]; 1000 nM)	cell viability (U2OS [3]; 10000 nM)	cell viability (HepG2 [4]; 1 nM)	cell viability (HepG2 [4]; 10 nM)	cell viability (HepG2 [4]; 100 nM)	cell viability (HepG2 [4]; 1000 nM)	cell viability (HepG2 [4]; 10000 nM)	cell viability (Caco-2 [5]; 1 nM)	cell viability (Caco-2 [5]; 10 nM)	cell viability (Caco-2 [5]; 100 nM)	cell viability (Caco-2 [5]; 1000 nM)	cell viability (Caco-2 [5]; 10000 nM)	drug sensitivity score (Calu-3 [6])	drug sensitivity score (Vero E6 [7])	drug sensitivity score (U2OS [8])	drug sensitivity score (HepG2 [9])	drug sensitivity score (Caco-2 [10])	relative viability EC50 (Vero E6 [11])	relative viability EC50 (U2OS [12])	relative viability EC50 (HepG2 [13])	relative viability EC50 (Caco-2 [14])	relative viability EC50 (Calu-3 [15])
CN1[C@@H]2CC[C@H]1C[C@@H](OC1c3ccccc3CCc3ccccc31)C2 [deptropine]	98.8%	107%	108%	97.8%	72.8%	96.4%	93.8%	98.8%	93.8%	77.3%	101%	106%	99.9%	103%	93%	102%	96.3%	102%	98.6%	76.7%	92.1%	97.5%	96.3%	92.5%	83.4%	1.4	1.6	0	1	0.3	> 10 µM	> 10 µM	> 10 µM	> 10 µM	–
CCc1cc(C(C)=O)c(O)cc1OCCCCCC(C)(C)c1nn[nH]n1	108%	103%	97.1%	98%	93.3%	–	–	–	–	–	94%	96.2%	88.1%	97.4%	95.5%	99.8%	107%	105%	88.4%	107%	102%	92.1%	99.5%	107%	94.5%	0	–	0	0	0	–	> 10 µM	> 10 µM	> 10 µM	> 10 µM
CCOC(=O)C1=C(C)NC(c2ccccc2)=C(C(=O)OCc2ccc([N+](=O)[O-])cc2)[C@@H]1C#Cc1ccccc1 [MRS-1334]	99.2%	97.1%	96.8%	95.2%	98%	–	–	–	–	–	104%	95.8%	100%	101%	97.9%	114%	104%	100%	92.6%	89.3%	99.1%	99.7%	92.8%	96.8%	91.9%	0	–	0	0.1	0	–	> 10 µM	> 10 µM	> 10 µM	> 10 µM
OCCOCCN1CCN(C(c2ccccc2)c2ccc(Cl)cc2)CC1 (stereo not given) [hydroxyzine]	101%	115%	93.3%	106%	96.7%	–	–	–	–	–	97.9%	99.8%	96.8%	100%	93.8%	101%	96.4%	104%	108%	105%	94.2%	101%	106%	101%	94%	0	–	0	0	0	–	> 10 µM	> 10 µM	> 10 µM	> 10 µM
C[C@@H](c1nc(-c2ccc(C#N)cc2)cs1)[C@](O)(Cn1cncn1)c1ccc(F)cc1F [ravuconazole]	–	–	–	–	–	96.3%	95.9%	101%	102%	98.6%	101%	105%	95.9%	100%	85.9%	97.1%	99.3%	84.8%	99.9%	49.1%	106%	103%	99.3%	84%	59.3%	–	0	0.2	2.7	4.2	> 10 µM	> 10 µM	3.14 µM	–	–
CC1(C)C[C@@H]1C(=O)N/C(=C\CCCCSC[C@H](N)C(=O)O)C(=O)O [Cilastatin Sodium]	–	–	–	–	–	104%	102%	99.2%	99.8%	94.3%	97.4%	100%	95.9%	102%	97.6%	108%	102%	95.4%	87.7%	96.5%	101%	107%	105%	99%	102%	–	0	0	0.9	0	> 10 µM	> 10 µM	> 10 µM	> 10 µM	–
O=C(NO)c1ccc(O)c(O)c1 [didox]	111%	110%	96.6%	103%	107%	–	–	–	–	–	–	–	–	–	–	102%	102%	93.3%	118%	93.2%	101%	96.9%	100%	86.7%	104%	0	–	–	0	0	–	–	> 10 µM	> 10 µM	> 10 µM
C#CC1(OCC(O)CN2CCN(c3cccc(C(F)(F)F)c3)CC2)CCCCC1 (stereo not given) [terciprazine]	–	–	–	–	–	106%	93.6%	104%	99.4%	87%	100%	98.6%	99%	96.8%	95%	96%	110%	110%	91.1%	90.9%	102%	92.2%	101%	86.1%	87%	–	0.1	0	0	1	> 10 µM	> 10 µM	> 10 µM	> 10 µM	–
O=C(Nc1ccncc1)c1cc([N+](=O)[O-])ccc1Cl	–	–	–	–	–	102%	97.3%	89.4%	88%	93.1%	99.5%	104%	99.7%	106%	93.2%	103%	91.3%	105%	86%	99.4%	102%	86.1%	97.9%	96.3%	85.5%	–	0.9	0	0	0	> 10 µM	> 10 µM	> 10 µM	> 10 µM	–
CCOC(=O)N1c2ccc(C(F)(F)F)cc2[C@@H](N(Cc2cc(C(F)(F)F)cc(C(F)(F)F)c2)C(=O)OC)C[C@H]1CC	96.4%	98.9%	98.4%	86%	69%	98.3%	99.1%	96.2%	98.4%	85.2%	–	–	–	–	–	99.3%	106%	94.3%	93.6%	75.5%	108%	108%	100%	101%	87.2%	2.8	0.4	–	1.5	0.1	> 10 µM	–	> 10 µM	> 10 µM	–
O=C(O)C(O)Cc1ccc(O)c(O)c1 (stereo not given) [sodium-danshensu]	–	–	–	–	–	101%	102%	103%	95.7%	97.6%	95%	96.2%	96.3%	94.8%	87.7%	99.5%	121%	99.8%	92%	104%	–	–	–	–	–	–	0	0	0	–	> 10 µM	> 10 µM	> 10 µM	–	–
CC[C@H](c1ccc(O)cc1)[C@@H](CC)c1ccc(O)cc1 [hexestrol]	–	–	–	–	–	94%	100%	92.2%	99%	108%	97.4%	95.2%	96.7%	95.7%	100%	92.7%	96.2%	93.2%	109%	116%	104%	97.4%	98.2%	95%	101%	–	0	0	0	0	> 10 µM	> 10 µM	> 10 µM	> 10 µM	–
Cc1cc(C)c(N(Cc2ccccc2)S(=O)(=O)c2ccc(OCCNC(=O)c3cc4ccccc4o3)cc2)c(C(=O)NO)c1	95.2%	103%	96.9%	99.4%	73.4%	105%	107%	105%	104%	47%	104%	96.3%	100%	98.5%	63.9%	93.4%	98.9%	91%	94.5%	37.8%	94.1%	101%	105%	88.8%	42%	1.1	2.5	1.9	4.3	5	3.55 µM	–	2.43 µM	1.77 µM	–
CN(C)CCC(c1ccccc1)c1ccccn1 (stereo not given) [pheniramine]	105%	95.3%	99%	94.7%	102%	91.4%	57.3%	101%	77.9%	79.5%	99.9%	98.8%	102%	97.6%	109%	96.4%	99.8%	102%	103%	101%	98.1%	96.6%	93.6%	91.6%	101%	0	5.7	0	0	0	–	> 10 µM	> 10 µM	> 10 µM	> 10 µM
C=CC(=O)Nc1cccc(Oc2nc(Nc3ccc(N4CCN(C)CC4)cc3OC)ncc2Cl)c1 [WZ-4002]	94.4%	97%	90.8%	88.6%	56.9%	98.6%	102%	103%	88.4%	78.1%	94.5%	101%	98.9%	99.3%	93.5%	98.1%	101%	101%	104%	109%	101%	95.9%	94.9%	94.4%	83.7%	3.5	2	0	0	0.3	> 10 µM	> 10 µM	> 10 µM	> 10 µM	–
CCOC(=O)[C@H](Cc1ccc([N+](=O)[O-])cc1)NC(=O)c1ccccc1	92.9%	103%	96.8%	102%	106%	–	–	–	–	–	101%	98.3%	98.5%	101%	102%	99.4%	93.2%	107%	101%	95.2%	104%	97.9%	102%	96.7%	90.7%	0	–	0	0	0	–	> 10 µM	> 10 µM	> 10 µM	> 10 µM
